Reference: paper PMC8753592, “Long-acting capsid inhibitor protects macaques from repeat SHIV challenges” (Nature, 2021)
“And” between values parts separate entries of the source, which are not always exact repeats. Equal values may be shown once.

What was measured:
[1] = Pilot pharmacokinetic study, single subcutaneous administration
Description: All study protocols were reviewed and approved by the Covance Laboratories Institutional Animal Care and Use Committee (IACUC).
Rhesus plasma samples were stored frozen at −80 °C. For analysis, the samples were thawed, and a 50-µl aliquot of each sample was treated with 200 µl acetonitrile containing a generic internal small-molecule standard. After precipitation of the protein component, a 100-µl aliquot of the supernatant was transferred to a clean 96-well plate and was mixed with 200 µl water. A 20-μl aliquot of the above solution was then injected into a Q-Exactive high-resolution mass spectrometer (Thermo Scientific) with electrospray ionization in positive mode. Quantification was performed with a Thermo Scientific Xcalibur 4.0.27.19 using accurate masses (<5 parts per million mass error; [M + H]^+ of 958.1853 for GC-CA1 and 758.3270 for the internal standard, respectively)[22],[23]. […] Pharmacokinetic parameters, including the area under the plasma concentration–time curve from time 0 to the last quantifiable time point (AUClast), the area under the plasma concentration–time curve from time 0 to infinity (AUCinf), the maximum concentration (Cmax), the time to reach the observed peak plasma concentration (tmax) and the terminal half-life (t1/2), were determined by non-compartmental analysis using Phoenix WinNonlin 6.4 build 8.1.0.3530 software (Pharsight).

[2] = ref Yant et al, Nat.Med, 2019;[4], cited from earlier work
[3] = ref Yant et al, Nat.Med, 2019;[4]; cited from earlier work
[4] = target: CA precursor (Gag polyprotein); conditions: ref Yant et al, Nat.Med, 2019;[4]; read-out: Binding Affinity (KD), CA precursor (Gag polyprotein); cited from earlier work
[5] = male, Indian origin, rhesus monkey, in vivo, sc, 100 mg/kg
[6] = male, Indian origin, rhesus monkey, in vivo, sc, 300 mg/kg

Compound: CC(C)(C#Cc1ccc(-c2ccc(Cl)c3c(NS(=O)(=O)C4CC4)nn(CC(F)F)c23)c([C@H](Cc2cc(F)cc(F)c2)NC(=O)Cn2nc(C(F)F)c3c2C(F)(F)[C@@H]2C[C@H]32)n1)S(C)(=O)=O [GS-CA1]
- Plasma GS-CA1 level ([1]; 100 mg/kg s.c., 0.006 weeks post dose, individual animals, unit not given (Fig. 1b in nM)): 41.2 and 93.2
- Plasma GS-CA1 level ([1]; 100 mg/kg s.c., 0.018 weeks post dose, individual animals, unit not given): 240
- Plasma GS-CA1 level ([1]; 100 mg/kg s.c., 0.047 weeks post dose, individual animals, unit not given): 588
- Plasma GS-CA1 level ([1]; 100 mg/kg s.c., 0.14 weeks post dose, individual animals, unit not given): 2054
- Plasma GS-CA1 level ([1]; 100 mg/kg s.c., 0.29 weeks post dose, individual animals, unit not given): 2247
- Plasma GS-CA1 level ([1]; 100 mg/kg s.c., 0.43 weeks post dose, individual animals, unit not given): 1217
- Plasma GS-CA1 level ([1]; 100 mg/kg s.c., 0.57 weeks post dose, individual animals, unit not given): 649
- Plasma GS-CA1 level ([1]; 100 mg/kg s.c., 1 week post dose, individual animals, unit not given): 448
- Plasma GS-CA1 level ([1]; 100 mg/kg s.c., 2 weeks post dose, individual animals, unit not given): 254
- Plasma GS-CA1 level ([1]; 100 mg/kg s.c., 3 weeks post dose, individual animals, unit not given): 125
- Plasma GS-CA1 level ([1]; 100 mg/kg s.c., 4 weeks post dose, individual animals, unit not given): 115
- Plasma GS-CA1 level ([1]; 100 mg/kg s.c., 5 weeks post dose, individual animals, unit not given): 92.7
- Plasma GS-CA1 level ([1]; 100 mg/kg s.c., 6 weeks post dose, individual animals, unit not given): 65.1
- Plasma GS-CA1 level ([1]; 100 mg/kg s.c., 8 weeks post dose, individual animals, unit not given): 43.2
- Plasma GS-CA1 level ([1]; 100 mg/kg s.c., 10 weeks post dose, individual animals, unit not given): 23.6
- Plasma GS-CA1 level ([1]; 100 mg/kg s.c., 12 weeks post dose, individual animals, unit not given): 11.5
- Plasma GS-CA1 level ([1]; 100 mg/kg s.c., 14 weeks post dose, individual animals, unit not given): 15.5 and 6.3
- Plasma GS-CA1 level ([1]; 100 mg/kg s.c., 16 weeks post dose, individual animals, unit not given): 10.4 and 5.1
- Plasma GS-CA1 level ([1]; 100 mg/kg s.c., 18 weeks post dose, individual animals, unit not given): 10.7 and 2.4
- Plasma GS-CA1 level ([1]; 300 mg/kg s.c., 0.006 weeks post dose, individual animals, unit not given (Fig. 1b in nM)): 74.8 and 53.9
- Plasma GS-CA1 level ([1]; 300 mg/kg s.c., 0.018 weeks post dose, individual animals, unit not given): 137 and 203 and 314
- Plasma GS-CA1 level ([1]; 300 mg/kg s.c., 0.047 weeks post dose, individual animals, unit not given): 205 and 325 and 1054
- Plasma GS-CA1 level ([1]; 300 mg/kg s.c., 0.14 weeks post dose, individual animals, unit not given): 3062 and 1232 and 2737
- Plasma GS-CA1 level ([1]; 300 mg/kg s.c., 0.29 weeks post dose, individual animals, unit not given): 3422 and 1597 and 1786
- Plasma GS-CA1 level ([1]; 300 mg/kg s.c., 0.43 weeks post dose, individual animals, unit not given): 1984 and 1345
- Plasma GS-CA1 level ([1]; 300 mg/kg s.c., 0.57 weeks post dose, individual animals, unit not given): 1342 and 1428
- Plasma GS-CA1 level ([1]; 300 mg/kg s.c., 1 week post dose, individual animals, unit not given): 938 and 936
- Plasma GS-CA1 level ([1]; 300 mg/kg s.c., 2 weeks post dose, individual animals, unit not given): 1435 and 680 and 798
- Plasma GS-CA1 level ([1]; 300 mg/kg s.c., 3 weeks post dose, individual animals, unit not given): 467 and 939 and 816
- Plasma GS-CA1 level ([1]; 300 mg/kg s.c., 4 weeks post dose, individual animals, unit not given): 461 and 659
- Plasma GS-CA1 level ([1]; 300 mg/kg s.c., 5 weeks post dose, individual animals, unit not given): 226 and 377 and 512
- Plasma GS-CA1 level ([1]; 300 mg/kg s.c., 6 weeks post dose, individual animals, unit not given): 291 and 348 and 602
- Plasma GS-CA1 level ([1]; 300 mg/kg s.c., 8 weeks post dose, individual animals, unit not given): 243 and 396
- Plasma GS-CA1 level ([1]; 300 mg/kg s.c., 10 weeks post dose, individual animals, unit not given): 116 and 206
- Plasma GS-CA1 level ([1]; 300 mg/kg s.c., 12 weeks post dose, individual animals, unit not given): 56.5 and 98.6 and 116
- Plasma GS-CA1 level ([1]; 300 mg/kg s.c., 14 weeks post dose, individual animals, unit not given): 66.9 and 71.3
- Plasma GS-CA1 level ([1]; 300 mg/kg s.c., 16 weeks post dose, individual animals, unit not given): 19.3 and 37.8 and 64.2
- Plasma GS-CA1 level ([1]; 300 mg/kg s.c., 18 weeks post dose, individual animals, unit not given): 10 and 26.3 and 22.2
- concentration at 0.018 weeks ([1]; male, Indian origin, rhesus monkey, in vivo, 100 mg/kg, Plasma GS-CA1 level, 100 mg/kg s.c., 0.018 weeks post dose, individual animals, unit inferred): 202 nM
- concentration at 0.047 weeks ([1]; male, Indian origin, rhesus monkey, in vivo, 100 mg/kg, Plasma GS-CA1 level, 100 mg/kg s.c., 0.047 weeks post dose, individual animals, unit inferred): 436 nM
- concentration at 0.14 weeks ([1]; male, Indian origin, rhesus monkey, in vivo, 100 mg/kg, Plasma GS-CA1 level, 100 mg/kg s.c., 0.14 weeks post dose, individual animals, unit inferred): 1210 nM
- concentration at 0.29 weeks ([1]; male, Indian origin, rhesus monkey, in vivo, 100 mg/kg, Plasma GS-CA1 level, 100 mg/kg s.c., 0.29 weeks post dose, individual animals, unit inferred): 1160 nM
- concentration at 0.43 weeks ([1]; male, Indian origin, rhesus monkey, in vivo, 100 mg/kg, Plasma GS-CA1 level, 100 mg/kg s.c., 0.43 weeks post dose, individual animals, unit inferred): 910 nM
- concentration at 0.57 weeks ([1]; male, Indian origin, rhesus monkey, in vivo, 100 mg/kg, Plasma GS-CA1 level, 100 mg/kg s.c., 0.57 weeks post dose, individual animals, unit inferred): 487 nM
- concentration at 1 week ([1]; male, Indian origin, rhesus monkey, in vivo, 100 mg/kg, Plasma GS-CA1 level, 100 mg/kg s.c., 1 week post dose, individual animals, unit inferred): 353 nM
- concentration at 2 weeks ([1]; male, Indian origin, rhesus monkey, in vivo, 100 mg/kg, Plasma GS-CA1 level, 100 mg/kg s.c., 2 weeks post dose, individual animals, unit inferred): 163 nM
- concentration at 3 weeks ([1]; male, Indian origin, rhesus monkey, in vivo, 100 mg/kg, Plasma GS-CA1 level, 100 mg/kg s.c., 3 weeks post dose, individual animals, unit inferred): 114 nM
- concentration at 4 weeks ([1]; male, Indian origin, rhesus monkey, in vivo, 100 mg/kg, Plasma GS-CA1 level, 100 mg/kg s.c., 4 weeks post dose, individual animals, unit inferred): 138 nM
- concentration at 5 weeks ([1]; male, Indian origin, rhesus monkey, in vivo, 100 mg/kg, Plasma GS-CA1 level, 100 mg/kg s.c., 5 weeks post dose, individual animals, unit inferred): 93.4 nM
- concentration at 6 weeks ([1]; male, Indian origin, rhesus monkey, in vivo, 100 mg/kg, Plasma GS-CA1 level, 100 mg/kg s.c., 6 weeks post dose, individual animals, unit inferred): 84.9 nM
- concentration at 8 weeks ([1]; male, Indian origin, rhesus monkey, in vivo, 100 mg/kg, Plasma GS-CA1 level, 100 mg/kg s.c., 8 weeks post dose, individual animals, unit inferred): 36.4 nM
- concentration at 10 weeks ([1]; male, Indian origin, rhesus monkey, in vivo, 100 mg/kg, Plasma GS-CA1 level, 100 mg/kg s.c., 10 weeks post dose, individual animals, unit inferred): 40.7 nM
- concentration at 12 weeks ([1]; male, Indian origin, rhesus monkey, in vivo, 100 mg/kg, Plasma GS-CA1 level, 100 mg/kg s.c., 12 weeks post dose, individual animals, unit inferred): 18 nM
- concentration at 0.006 weeks ([1]; male, Indian origin, rhesus monkey, in vivo, 300 mg/kg, Plasma GS-CA1 level, 300 mg/kg s.c., 0.006 weeks post dose, individual animals, unit not given (Fig. 1b in nM)): 68.8 nM
- concentration at 0.43 weeks ([1]; male, Indian origin, rhesus monkey, in vivo, 300 mg/kg, Plasma GS-CA1 level, 300 mg/kg s.c., 0.43 weeks post dose, individual animals, unit inferred): 2000 nM
- concentration at 0.57 weeks ([1]; male, Indian origin, rhesus monkey, in vivo, 300 mg/kg, Plasma GS-CA1 level, 300 mg/kg s.c., 0.57 weeks post dose, individual animals, unit inferred): 1920 nM
- concentration at 1 week ([1]; male, Indian origin, rhesus monkey, in vivo, 300 mg/kg, Plasma GS-CA1 level, 300 mg/kg s.c., 1 week post dose, individual animals, unit inferred): 1310 nM
- concentration at 4 weeks ([1]; male, Indian origin, rhesus monkey, in vivo, 300 mg/kg, Plasma GS-CA1 level, 300 mg/kg s.c., 4 weeks post dose, individual animals, unit inferred): 338 nM
- concentration at 8 weeks ([1]; male, Indian origin, rhesus monkey, in vivo, 300 mg/kg, Plasma GS-CA1 level, 300 mg/kg s.c., 8 weeks post dose, individual animals, unit inferred): 198 nM
- concentration at 10 weeks ([1]; male, Indian origin, rhesus monkey, in vivo, 300 mg/kg, Plasma GS-CA1 level, 300 mg/kg s.c., 10 weeks post dose, individual animals, unit inferred): 109 nM
- concentration at 14 weeks ([1]; male, Indian origin, rhesus monkey, in vivo, 300 mg/kg, Plasma GS-CA1 level, 300 mg/kg s.c., 14 weeks post dose, individual animals, unit inferred): 43.8 nM
- concentration at 7 day ([1]; male, Indian origin, rhesus monkey, in vivo, plasma drug level, 100 and 300 mg/kg single s.c., by day 7): 400 to 1100 nM
- AUC(0-inf) [1, 5]: 333 µM·h
- F (based on AUCinf) [1, 5]: 92%
- Tmax [1, 5]: 36 h
- half-life [1, 5]: 25 days
- AUC(0-t) ([1]; male, Indian origin, rhesus monkey, in vivo, sc, 100 mg/kg, AUC0-24h): 19.3 µM·h
- AUC(0-t) ([1]; male, Indian origin, rhesus monkey, in vivo, sc, 100 mg/kg, AUC0-168h): 147 µM·h
- AUC(0-t) ([1]; male, Indian origin, rhesus monkey, in vivo, sc, 100 mg/kg, AUC0-336h): 198 µM·h
- AUC(0-t) ([1]; male, Indian origin, rhesus monkey, in vivo, sc, 100 mg/kg, AUC0-1008h): 279 µM·h
- AUC(0-t) ([1]; male, Indian origin, rhesus monkey, in vivo, sc, 100 mg/kg, AUC0-1344h): 298 µM·h
- AUC(0-t) ([1]; male, Indian origin, rhesus monkey, in vivo, sc, 100 mg/kg, AUC0-1680h): 310 µM·h
- AUC(0-inf) [1, 6]: 1120 ± 126 µM·h
- Cmax [1, 6]: 2710 ± 720 nM
- F (based on AUCinf) [1, 6]: 104 ± 12%
- Tmax [1, 6]: 48 ± 24 h
- half-life [1, 6]: 23.2 days
- AUC(0-t) ([1]; male, Indian origin, rhesus monkey, in vivo, sc, 300 mg/kg, AUC0-24h): 25.2 ± 10.2 µM·h
- AUC(0-t) ([1]; male, Indian origin, rhesus monkey, in vivo, sc, 300 mg/kg, AUC0-336h): 434 ± 114 µM·h
- AUC(0-t) ([1]; male, Indian origin, rhesus monkey, in vivo, sc, 300 mg/kg, AUC0-1008h): 819 ± 77 µM·h
- AUC(0-t) ([1]; male, Indian origin, rhesus monkey, in vivo, sc, 300 mg/kg, AUC0-1344h): 936 ± 91 µM·h
- AUC(0-t) ([1]; male, Indian origin, rhesus monkey, in vivo, sc, 300 mg/kg, AUC0-1680h): 1010 ± 109 µM·h
- Kinetic solubility at pH 2.0 ([2]; pH 2.0): <1, <1 μM
- Kinetic solubility at pH 7.4 ([2]; pH 7.4): <1, <1 μM
- Predicted Hepatic Clearance, rate, primary human hepatocytes [3]: 0.02 L/h/kg
- Kd [4]: 2.4 nM
